# According to US10413529B2, “Methods of inhibiting cataracts and presbyopia” (UNIVERSITY OF MASSACHUSETTS, priority 2013, dated 2019):
# Legend:
# [1] = target: T1, γS-crystallin (Homo sapiens, UniProt P22914); test: Dynamic light scattering (DLS) of γS-crystallin, hydrodynamic radius of monomer and aggregate; type: biochemical; details: for Rhf / Rhs: γS; for Rhf: fast mode; for Rh: γS modified with the agent
# T1 construct: 6xHis (N); made in house; host or cells: M15pRep E. coli (pQe1 plasmid from King Labs, MIT)
# T1 sequence (P22914 1-178): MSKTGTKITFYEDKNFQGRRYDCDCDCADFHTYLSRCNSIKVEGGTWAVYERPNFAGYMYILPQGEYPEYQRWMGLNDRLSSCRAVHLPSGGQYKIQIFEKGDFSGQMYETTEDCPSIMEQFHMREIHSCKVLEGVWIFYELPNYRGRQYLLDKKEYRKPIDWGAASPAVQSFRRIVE
# Protocol: (§1) The scattering wave vector is defined as q=4πn sin (θ/2)/λ, where θ is the scattering angle, and λ=514.5, the wavelength of the argon laser in vacuum, and n is 1.33, the refractive index of water. The temperature of the sample was held at constant temperature of 4 to 37±0.1° C. by a circulating water bath. The correlation function was analyzed using CONTIN analysis [NT] times for the correlation functions at measured angles. […] The delay times (τ) were converted to Γ and graphed versus q^2. The slope of the fitted line is the diffusion coefficient (D). […] All solutions were filtered with 0.22 μm hydrophobic PVDF membranes (Fisher Scientific) into 10 mm diameter borosilicate glass tubes and sealed. Solutions were allowed to equilibrate for thirty minutes prior to measuring light scattering. […] The pH and salt concentration were adjusted via overnight dialysis at 4° C. and their final concentration adjusted to 1.0 g/L. […] The scattering wave vector is defined as q=4πn sin (θ/2)/λ, where θ is the scattering angle, and λ=514.5, the wavelength of the argon laser in vacuum, and n is 1.33, the refractive index of water. The temperature of the sample was held at constant temperature of 4 to 37±0.1° C. by a circulating water bath. The correlation function was analyzed using CONTIN analysis [NT] times for the correlation functions at measured angles. […] The delay times (τ) were converted to Γ and graphed versus q^2. The slope of the fitted line is the diffusion coefficient (D). […] All solutions were filtered with 0.22 μm hydrophobic PVDF membranes (Fisher Scientific) into 10 mm diameter borosilicate glass tubes and sealed. Solutions were allowed to equilibrate for thirty minutes prior to measuring light scattering.
# [2] = target: T2, γD-crystallin (Homo sapiens, UniProt P07320); test: Dynamic light scattering (DLS) of γD-crystallin, hydrodynamic radius of monomer and aggregate; type: biochemical; details: for Rhf / Rhs: γD; for Rhf: fast mode; for Rh: γD modified with the agent
# T2 construct: 6xHis (N); made in house; host or cells: M15pRep E. coli (pQe1 plasmid from King Labs, MIT)
# T2 sequence (P07320 1-174): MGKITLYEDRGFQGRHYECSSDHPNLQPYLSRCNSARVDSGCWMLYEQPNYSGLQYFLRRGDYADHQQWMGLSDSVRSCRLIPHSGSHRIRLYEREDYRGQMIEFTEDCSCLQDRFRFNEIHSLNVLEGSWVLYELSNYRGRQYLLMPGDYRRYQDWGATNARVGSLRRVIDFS
# Protocol: as §1
# [3] = test system: γ-crystallin; test: DLS, aggregation of γ-crystallin (stated for γD and γS together); type: biochemical; details: for aggregation of γ-crystallin modified with the agent (DLS): dilute solution, 22° and 37° C.; for effect on the large γ-crystallin aggregate: α-crystallin mixed with γD- or γS-crystallin, molar ratio 3:1, one hour at 4° C.
# Protocol: (§2) Scattering intensity was measured at angles between 30° and 90° at 5° intervals, corresponding to a scattering wave vector (q) range between 8.41×10^6 and 2.30×10^7 m^−1. The scattering wave vector is defined as q=4πn sin (θ/2)/λ, where θ is the scattering angle, and λ=514.5, the wavelength of the argon laser in vacuum, and n is 1.33, the refractive index of water. The temperature of the sample was held at constant temperature of 4 to 37±0.1° C. by a circulating water bath.
# (§3) The correlation function was analyzed using CONTIN analysis to calculate lag times for the correlation functions at measured angles. The peaks represent the diffusive mode of the proteins. The delay times (τ) were converted to Γ and graphed versus q^2. The slope of the fitted line is the diffusion coefficient (D). The lines are fitted such that the intercept is zero because a non-zero value of q=0 is unphysical. The Γ versus q^2 plots were linear with r^2 values of 0.95 or greater.
# (§4) All solutions were filtered with 0.22 μm hydrophobic PVDF membranes (Fisher Scientific) into 10 mm diameter borosilicate glass tubes and sealed. Solutions were allowed to equilibrate for thirty minutes prior to measuring light scattering.
# γ-crystallins were subjected to a variety of experimental conditions, including a range of pHs (5, 6, 7, 8, 9, 10, 11), concentrations of KCl (100 mM, 150 mM, 300 mM, 500 mM, 1000 mM) and temperature (4.5° C., 22° C., 37° C.). The pH and salt concentration were adjusted via overnight dialysis at 4° C. and their final concentration adjusted to 1.0 g/L.
# It had been hypothesized that disulfide bonds might mediate the observed γ-crystallin aggregates. The DLS of the γ-crystallin proteins was also measured in 5 mM DTT, and in the presence of 1.0 g/L α-crystallin. […] Thus, this hypothesis was incorrect.
# Further, the synthesized α-crystallin proteins were mixed with γ-crystallin proteins to determine if the chaperoning ability of α-crystallin disrupts the γ-crystallin aggregates. The α-A and α-B crystallins were each individually mixed with γD- or γS-crystallin in a molar ratio of 3:1, respectively, mimicking the ratio found in the human eye lens. All solutions were allowed to equilibrate for an hour at 4° C.
# [4] = test system: γ-crystallin; test: Circular dichroism of modified γ-crystallin (secondary structure); type: biochemical; details: 0.5 mg/mL, 22° C., versus native protein
# Protocol: Crystallin samples were dialyzed overnight into 10 mM Na2HPO4/NaH2PO4 buffer pH 6.8 and measured at a concentration of 0.5 mg/mL. CD spectra were measured on a Jasco J715 spectropolarimeter at 22° C. using a quartz cell of 1 mm path length.
# [5] = DLS of individual α-crystallin solutions (size in dilute solution); type: physicochemical; details: individual protein solution
# Protocol: as §2, §3, §4
# Individual solutions of α-A, α-B, γD- and γ-S crystallin proteins were investigated to understand the size scale and how the proteins behave in dilute solution. (Table 1) Temperature had little effect on protein size in solution as measured by DLS.
# [6] = slow mode (aggregate), 100 mM NaCl
# [7] = slow mode (aggregate), 150 mM NaCl
# [8] = slow mode (aggregate), 300 mM NaCl
# [9] = fast mode (monomer, first Rh column), 22° C.
# [10] = α-crystallin additive, molar ratio 3:1, one hour at 4° C.
# [11] = slow mode, α-crystallin additive, molar ratio 3:1, one hour at 4° C.
molecule,measurement,setting,value
"O[C@@H](CS)[C@@H](O)CS [DTT, reference compound]",Rhf,[1]; additive 5 mM DTT,3 nm
same,Rhs,"[1]; slow mode, additive 5 mM DTT",102 nm
same,Rhf,[2]; additive 5 mM DTT,2.6 nm
same,Rhs,"[2]; slow mode, additive 5 mM DTT",108 nm
same,effect on the size of the γ-crystallin aggregates,[3]; 5 mM DTT,had no effect on the size of the γ-crystallin aggregates
[Cl-].[K+] [KCl],aggregate formation,[3]; KCl concentrations 400 to 1000 mM,aggregate formation was effectively inhibited
same,reduction in the size of γ-crystallin aggregates,[3]; KCl concentrations of less than 300 nM (so in the source),did not provide a reduction in the size of γ-crystallin aggregates
same,reduction of γ-crystallin aggregates,[3]; salt concentrations over 300 mm KCl (so in the source),did reduce γ-crystallin aggregates to individual protein particles
[Cl-].[Na+] [NaCl],Rhf,[1]; 100 mM NaCl,2.7 nm
same,Rhf,[1]; 150 mM NaCl,2.7 nm
same,Rhf,[1]; 300 mM NaCl,2.9 nm
same,Rhf,[1]; 400 mM NaCl,2.6 nm
same,Rhf,[1]; 500 mM NaCl,2.5 nm
same,Rhf,[1]; 1000 mM NaCl,2.6 nm
same,Rhs,[1]; [6],104 nm
same,Rhs,[1]; [7],102 nm
same,Rhs,[1]; [8],100 nm
same,Rhf,[2]; 100 mM NaCl,2.8 nm
same,Rhf,[2]; 150 mM NaCl,2.8 nm
same,Rhf,[2]; 300 mM NaCl,2.6 nm
same,Rhf,[2]; 400 mM NaCl,2.7 nm
same,Rhf,[2]; 500 mM NaCl,2.8 nm
same,Rhf,[2]; 1000 mM NaCl,2.5 nm
same,Rhs,[2]; [6],108 nm
same,Rhs,[2]; [7],104 nm
same,Rhs,[2]; [8],91 nm
"CC(=O)O.O=C1CC(S(=O)(=O)O)C(=O)N1O (stereo not shown) [SA, sulfo-N-hydroxysuccinimide acetate]",Rh,"[1]; fast mode (monomer), 37° C.",2.5 nm
same,Rh,[1]; [9],2.5 nm
same,Rh,"[1]; slow mode (aggregate), 22° C.",92.5 nm
same,Rh,"[1]; slow mode (aggregate), 37° C.",90 nm
same,Rh,"[2]; fast mode (monomer), 37° C.",2.6 nm
same,Rh,[2]; [9],2.5 nm
same,Rh,"[2]; slow mode (aggregate), 22° C.",82.5 nm
same,Rh,"[2]; slow mode (aggregate), 37° C.",85 nm
same,aggregation of γ-crystallin modified with the agent (DLS),[3],did not prevent aggregation
same,secondary structure of modified γ-crystallin (CD spectra),[4],smaller well around 220 nm as compared to the native
Biotin,Rh,"[1]; fast mode (monomer), 37° C.",2.8 nm
same,Rh,[1]; [9],2.6 nm
same,Rh,"[1]; slow mode (aggregate), 22° C.",180 nm
same,Rh,"[1]; slow mode (aggregate), 37° C.",210 nm
same,Rh,"[2]; fast mode (monomer), 37° C.",2.7 nm
same,Rh,[2]; [9],2.8 nm
same,Rh,"[2]; slow mode (aggregate), 22° C.",150 nm
same,Rh,"[2]; slow mode (aggregate), 37° C.",170 nm
same,aggregation of γ-crystallin modified with the agent (DLS),[3],resulted in aggregation
same,secondary structure of modified γ-crystallin (CD spectra),[4],showed a sizeable shift upwards as compared with the native structure of the protein
PEG4,Rh,"[1]; fast mode (monomer), 37° C.",2.9 nm
same,Rh,[1]; [9],2.9 nm
same,Rh,"[2]; fast mode (monomer), 37° C.",2.9 nm
same,Rh,[2]; [9],2.8 nm
same,aggregation of γ-crystallin modified with the agent (DLS),[3],showed no aggregation
same,secondary structure of modified γ-crystallin (CD spectra),[4],did not significantly affect the secondary structures
"αA: αA-crystallin, heat shock protein and molecular chaperone, 19.9 kDa",effect on the large γ-crystallin aggregate,[3],the large γ-crystallin aggregate of several hundred nanometers disappeared
same,Rh,[5]; 4°,12 nm
same,Rh,[5]; 22°,12 nm
same,Rh,[5]; 37°,13 nm
"αB: αB-crystallin, heat shock protein and molecular chaperone, 20.16 kDa",Rhf,[1]; [10],3 nm
same,Rhs,[1]; [11],19 nm
same,Rhf,[2]; [10],3.2 nm
same,Rhs,[2]; [11],17 nm
same,effect on the large γ-crystallin aggregate,[3],the large γ-crystallin aggregate of several hundred nanometers disappeared
same,Rh,[5]; 4°,12 nm
same,Rh,[5]; 22°,13 nm
same,Rh,[5]; 37°,13 nm
